How the values were obtained:
[1] = system: SW780 bladder cancer cell line; assay: CellTiter-Glo viability assay, SW780; format: cell-based; conditions: 72 hours (FIG. 12)
Procedure: (§1) Cellular viability was assessed using the CellTiter-Glo Luminescent Cell Viability Assay (Promega) according to manufacturer protocols. Bladder cancer cell lines were seeded into 96-well plates based on optimal growth rates determined empirically for each line. Twenty-four hours after plating, cells were dosed with graded concentrations of ganetespib for 72 hours. CellTiter-Glo was added (50% v/v) to the cells, and the plates incubated for 10 minutes prior to luminescent detection in a SpectraMax Plus 384 microplate reader (Molecular Devices). Data were normalized to percent of control and IC50 values used to determine the sensitivity of each line. For the comparative analyses with ganetespib and BGJ398, RT112 cells were treated with graded concentrations of each compound for 72 hours and cell viability measured as above. For the evaluation of apoptotic induction, caspase activity was assessed using the Caspase-Glo 3/7 assay (Promega) according to manufacturer protocols. Twenty-four hours after plating, RT112 cells were treated with graded concentrations of ganetespib for 24 hours. Caspase-Glo was added to cells (50% v/v) and the plates incubated for 1 hour prior to luminescent detection.

[2] = system: RT4 bladder cancer cell line; assay: CellTiter-Glo viability assay, RT4; format: cell-based; conditions: 72 hours (FIG. 8), read-out: IC50 values
Procedure: as §1

[3] = system: RT112 bladder cancer cell line; assay: CellTiter-Glo viability assay, RT112; format: cell-based; conditions: Homo sapiens, RT-112, 72-hour combination viability assay, single inhibitor, read-out: approximate IC50 concentrations
Procedure: as §1

[4] = system: FGFR3-TAAC3 in RT112 cells; assay: Western blotting of FGFR3-TAAC3 and signaling proteins in RT112 cells; format: cell-based; conditions: 100 nM, 24 hours
Procedure: Following in vitro assays, tumor cells were disrupted in lysis buffer on ice for 10 minutes. Lysates were clarified by centrifugation and equal amounts of proteins resolved by SDS-PAGE before transfer to nitrocellulose membranes (Bio-Rad). Membranes were blocked with StartingBlock T20 blocking buffer (Thermo Scientific) and immunoblotted with the indicated antibodies. Antibody-antigen complexes were visualized using an Odyssey system (LI-COR).

RT112 xenografts = assay: RT112 xenograft tumor model; format: in vivo; conditions: BGJ398 10 mg/kg p.o. daily, 3 weeks
Procedure: CD-1 nude mice (Charles River Laboratories, Wilmington, Mass.) at 7-12 weeks of age were maintained in a pathogen-free environment and all in vivo procedures were approved by the Synta Pharmaceuticals Corp. Institutional Animal Care and Use Committee. RT112 cells (5×10^6) were subcutaneously implanted into female mice and animals bearing established tumors (˜150 mm^3) were randomized into treatment groups of 8. Mice were i.v. dosed with ganetespib (150 mg/kg) once weekly or p.o. dosed with BGJ398 (10 mg/kg) daily, either alone or in combination, for 3 weeks. Tumor growth inhibition was monitored by tumor volume measurements twice weekly. As a measurement of in vivo efficacy, the % T/C value was determined from the change in average tumor volumes of each treated group relative to the vehicle treated animals. Statistical significance was determined using two-way ANOVA followed by Bonferroni post tests.

`C=CCNC1=C2C[C@@H](C)C[C@H](OC)[C@H](O)[C@@H](C)/C=C(\C)[C@H](OC(N)=O)[C@@H](OC)/C=C\C=C(/C)C(=O)NC(=CC1=O)C2=O` [17-AAG, 17-allylamino-17-demethoxygeldanamycin] was tested, and the “cytotoxicity / sensitivity of cells (in words)” value [1] was “acutely sensitive”.

For `CO[C@H]1/C=C\C=C(/C)C(=O)NC2=CC(=O)C(NCCN(C)C)=C(C[C@@H](C)C[C@H](OC)[C@H](O)[C@@H](C)/C=C(\C)[C@@H]1OC(N)=O)C2=O` [17-DMAG, 17-dimethylaminoethylamino-17-demethoxygeldanamycin], the “cytotoxicity / sensitivity of cells (in words)” value [1] was “acutely sensitive”.

With `CCNC(=O)c1noc(-c2cc(C(C)C)c(O)cc2O)c1-c1ccc(CN2CCOCC2)cc1` [AUY922] the IC50 [2] was > 1000 nM.

In the case of `CCN1CCN(c2ccc(Nc3cc(N(C)C(=O)Nc4c(Cl)c(OC)cc(OC)c4Cl)ncn3)cc2)CC1` [BGJ398, reference compound], the IC50 [3] is reported as ~5 nM, the “total FGFR3-TAAC3 expression” value [4] is reported as “did not affect” and the T/C value (RT112 xenografts) is reported as −20%.
